Experimental data: patent US20240109903A1, “SUBSTITUTED HETEROCYCLES FOR TREATING CANCER” (Northwestern University, priority 2022, published 2024)

Key:
Format in all cases: cell-based
UACC-257 = assay: NCI 60 five-dose screen UACC-257; details: Homo sapiens, five-dose
DU-145 = assay: NCI 60 five-dose screen DU-145; details: Homo sapiens, five-dose
UO-31 = assay: NCI 60 five-dose screen UO-31; details: Homo sapiens, five-dose
A549/ATCC = assay: NCI 60 five-dose screen A549/ATCC; details: Homo sapiens, five-dose
OVCAR-5 = assay: NCI 60 five-dose screen OVCAR-5; details: Homo sapiens, five-dose
TK-10 = assay: NCI 60 five-dose screen TK-10; details: Homo sapiens, five-dose
T-47D = assay: NCI 60 five-dose screen T-47D; details: Homo sapiens, T47D, five-dose
NCI/ADR-RES = assay: NCI 60 five-dose screen NCI/ADR-RES; details: Homo sapiens, five-dose
HOP-62 = assay: NCI 60 five-dose screen HOP-62; details: Homo sapiens, five-dose
SF-268 = assay: NCI 60 five-dose screen SF-268; details: Homo sapiens, five-dose
A498 = assay: NCI 60 five-dose screen A498; details: Homo sapiens, five-dose
HCC-2998 = assay: NCI 60 five-dose screen HCC-2998; details: Homo sapiens, five-dose
SNB-75 = assay: NCI 60 five-dose screen SNB-75; details: Homo sapiens, five-dose
SK-MEL-28 = assay: NCI 60 five-dose screen SK-MEL-28; details: Homo sapiens, five-dose
NCI-H226 = assay: NCI 60 five-dose screen NCI-H226; details: Homo sapiens, five-dose
KM12 = assay: NCI 60 five-dose screen KM12; details: Homo sapiens, five-dose
HOP-92 = assay: NCI 60 five-dose screen HOP-92; details: Homo sapiens, five-dose
HL-60(TB) = assay: NCI 60 five-dose screen HL-60(TB); details: Homo sapiens, five-dose
COLO 205 = assay: NCI 60 five-dose screen COLO 205; details: Homo sapiens, five-dose
MDA-MB-468 = assay: NCI 60 five-dose screen MDA-MB-468; details: Homo sapiens, five-dose
SK-MEL-5 = assay: NCI 60 five-dose screen SK-MEL-5; details: Homo sapiens, five-dose
NCI-H322M = assay: NCI 60 five-dose screen NCI-H322M; details: Homo sapiens, five-dose
HS 578T = assay: NCI 60 five-dose screen HS 578T; details: Homo sapiens, five-dose
OVCAR-8 = assay: NCI 60 five-dose screen OVCAR-8; details: Homo sapiens, five-dose
U251 = assay: NCI 60 five-dose screen U251; details: Homo sapiens, U-251, five-dose
OVCAR-3 = assay: NCI 60 five-dose screen OVCAR-3; details: Homo sapiens, five-dose
K-562 = assay: NCI 60 five-dose screen K-562; details: Homo sapiens, K562, five-dose
LOX IMVI = assay: NCI 60 five-dose screen LOX IMVI; details: Homo sapiens, five-dose
[1] = read-out: LC50 (the source's name) (converted)
[2] = read-out: LC50 (the source's name)

`FC(F)(F)c1cc2c(Cl)ncnc2n1CCC1CCOCC1` [NUCC-0226674] was tested, and the GI50 (UACC-257) was 3.55 µM, the IC50 (UACC-257) was 9.33 µM and the IC (TGI) (UACC-257) was 15.5 µM. It also gave a CC50 (UACC-257; [1]) of 52.5 µM, a GI50 (DU-145) of 4.37 µM and an IC50 (DU-145) of 7.24 µM. The IC (TGI) (DU-145) was 15.1 µM, the CC50 (DU-145; [1]) was 39.8 µM and the GI50 (UO-31) was 1.78 µM. For the same molecule, the IC50 (UO-31) was 3.39 µM, the IC (TGI) (UO-31) was 3.8 µM and the CC50 (UO-31; [1]) was 7.94 µM. It also gave a GI50 (A549/ATCC) of 21.9 µM, an IC50 (A549/ATCC) of 34.7 µM and an IC (TGI) (A549/ATCC) of 56.2 µM. For the same molecule, the CC50 (A549/ATCC; [1]) was at least 100 µM, the GI50 (OVCAR-5) was 24 µM and the IC50 (OVCAR-5) was 45.7 µM. For the same molecule, the IC (TGI) (OVCAR-5) was 81.3 µM, the CC50 (OVCAR-5; [1]) was at least 100 µM and the GI50 (TK-10) was 17.4 µM. It also gave an IC50 (TK-10) of 36.3 µM, an IC (TGI) (TK-10) of 36.3 µM and a CC50 (TK-10; [1]) of 77.6 µM. The GI50 (T-47D) was 20.4 µM, the IC50 (T-47D) was 47.9 µM and the IC (TGI) (T-47D) was 60.3 µM. The CC50 (T-47D; [2]) was at least 100 µM, the GI50 (NCI/ADR-RES) was 17 µM and the IC50 (NCI/ADR-RES) was 30.9 µM. For the same molecule, the IC (TGI) (NCI/ADR-RES) was 35.5 µM, the CC50 (NCI/ADR-RES; [1]) was 72.4 µM and the GI50 (HOP-62) was 17 µM. The IC50 (HOP-62) was 33.1 µM, the IC (TGI) (HOP-62) was 35.5 µM and the CC50 (HOP-62; [1]) was 72.4 µM. The GI50 (SF-268) was 2.45 µM, the IC50 (SF-268) was 4.57 µM and the IC (TGI) (SF-268) was 7.24 µM. It also gave a CC50 (SF-268; [1]) of 44.7 µM, a GI50 (A498) of 16.2 µM and an IC50 (A498) of 30.9 µM. The IC (TGI) (A498) was 30.2 µM, the CC50 (A498; [1]) was 55 µM and the GI50 (HCC-2998) was 1.62 µM. It also gave an IC50 (HCC-2998) of 2.95 µM, an IC (TGI) (HCC-2998) of 3.02 µM and a CC50 (HCC-2998; [1]) of 5.62 µM. It also gave a GI50 (SNB-75) of 3.09 µM, an IC50 (SNB-75) of 15.5 µM and an IC (TGI) (SNB-75) of 15.1 µM. The CC50 (SNB-75; [1]) was 39.8 µM, the GI50 (SK-MEL-28) was 2.63 µM and the IC50 (SK-MEL-28) was 4.57 µM. It also gave an IC (TGI) (SK-MEL-28) of 6.03 µM, a CC50 (SK-MEL-28; [1]) of 21.4 µM and a GI50 (NCI-H226) of 13.8 µM. It also gave an IC50 (NCI-H226) of 30.2 µM, an IC (TGI) (NCI-H226) of 28.8 µM and a CC50 (NCI-H226; [1]) of 58.9 µM. It also gave a GI50 (KM12) of 16.2 µM, an IC50 (KM12) of 28.2 µM and an IC (TGI) (KM12) of 33.9 µM. The CC50 (KM12; [1]) was 70.8 µM, the GI50 (HOP-92) was 13.8 µM and the IC50 (HOP-92) was 34.7 µM. It also gave an IC (TGI) (HOP-92) of 32.4 µM, a CC50 (HOP-92; [1]) of 75.9 µM and a GI50 (HL-60(TB)) of 2.24 µM. The IC50 (HL-60(TB)) was 4.17 µM, the IC (TGI) (HL-60(TB)) was 5.01 µM and the CC50 (HL-60(TB); [1]) was 44.7 µM. The GI50 (COLO 205) was 16.2 µM, the IC50 (COLO 205) was 30.2 µM and the IC (TGI) (COLO 205) was 37.2 µM. The CC50 (COLO 205; [1]) was 85.1 µM, the GI50 (MDA-MB-468) was 1.66 µM and the IC50 (MDA-MB-468) was 3.8 µM. For the same molecule, the IC (TGI) (MDA-MB-468) was 3.47 µM, the CC50 (MDA-MB-468; [1]) was 7.24 µM and the GI50 (SK-MEL-5) was 2.82 µM. The IC50 (SK-MEL-5) was 4.37 µM, the IC (TGI) (SK-MEL-5) was 9.33 µM and the CC50 (SK-MEL-5; [1]) was 30.2 µM. It also gave a GI50 (NCI-H322M) of 3.16 µM, an IC50 (NCI-H322M) of 8.32 µM and an IC (TGI) (NCI-H322M) of 12.6 µM. The CC50 (NCI-H322M; [1]) was 35.5 µM, the GI50 (HS 578T) was 12 µM and the IC50 (HS 578T) was 70.8 µM. The IC (TGI) (HS 578T) was 45.7 µM, the CC50 (HS 578T; [2]) was at least 100 µM and the GI50 (OVCAR-8) was 2.45 µM. The IC50 (OVCAR-8) was 3.63 µM, the IC (TGI) (OVCAR-8) was 7.41 µM and the CC50 (OVCAR-8; [1]) was 63.1 µM. It also gave a GI50 (U251) of 2.09 µM, an IC50 (U251) of 3.24 µM and an IC (TGI) (U251) of 5.62 µM. For the same molecule, the CC50 (U251; [1]) was 28.2 µM, the GI50 (OVCAR-3) was 12.3 µM and the IC50 (OVCAR-3) was 23.4 µM. For the same molecule, the IC (TGI) (OVCAR-3) was 27.5 µM, the CC50 (OVCAR-3; [1]) was 61.7 µM and the GI50 (K-562) was 2.82 µM. It also gave an IC50 (K-562) of 3.63 µM, an IC (TGI) (K-562) of 8.71 µM and a CC50 (K-562; [2]) of at least 100 µM. It also gave a GI50 (LOX IMVI) of 1.62 µM, an IC50 (LOX IMVI) of 2.88 µM and an IC (TGI) (LOX IMVI) of 3.02 µM. The CC50 (LOX IMVI; [1]) was 5.5 µM.
